Results as given in patent US20240252557A1, “MULTIBIOTIC SUPPLEMENTS” (Natals, Inc., priority 2023, published 2024).

System: Caco-2/THP1-Blue cell co-cultures
Test: Transepithelial electrical resistance (TEER) of Caco-2/THP1-Blue co-cultures, model of mild intestinal barrier disruption
Assay type: cell-based, human
Conditions: 48 h colonic fermentation samples, filtered and sterilized; TEER after 24 h
Description: This study used an in vitro cell co-culture to create a model of mild intestinal barrier disruption. This method utilizes a co-culture model of intestinal epithelial-like cells (Caco-2 cells) and human monocytes/macrophages (THP1 cells) and is based on the work of Satsu and colleagues (PMID: 17010338) and is described by Daguet et al. (doi: 10.1016r.jff.2015.11.005). Caco-2 cells are allowed to grow into a monolayer that has physiological properties of the intestinal lining, including tight junctions. Tight junction proteins keep adjacent epithelial cells together, which forms a barrier that is virtually impermeable to macromolecules. The “tightness” of tight junctions can be measured as transepithelial electrical resistance (TEER), with a high TEER corresponding to a tighter barrier. THP1 monocytes were originally isolated from a human patient with acute leukemia. When stimulated with phorbol 12-myristate 13-acetate (PMA), these cells develop into macrophage-like cells that are able to adhere and are primed for toll-like receptor (TLR) signaling. […] TEER was measured after pre-treatment of the cell co-cultures, representing a baseline (0 hour) value. […] Changes in TEER values were measured after 24 hours.
TEER was measured 24 h after pre-treatment of the co-cultures and each 24 h value was normalized to its corresponding Oh value and is shown as percentage of initial value. […]

SMILES: CCCC(=O)OCC(COC(=O)CCC)OC(=O)CCC [tributyrin]
- barrier integrity (TEER) compared to the blank control: improved barrier integrity
